The assay deals with CEM cells HIV-1 protection, formazan growth assay. Put plainly: NCI AIDS Antiviral Assay. The following applies: for pIC50: measured here: growth of uninfected CEM cells. The method, boiled down:
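CEM (human) cells, HIV-1 infected vs uninfected, 5-point dosing, formazan growth read-out. Retest threshold 50% protection.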

pEC50, pIC50: −log10 of the molar value. Values joined by “and” are separate entries in the source; they are usually repeats but may differ in a detail not shown here. Identical values can stand only once. Active and inactive are the calls of the source.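 Rule for the calls: active = compounds giving half or more protection of infected cells from virus-caused growth loss, again on retest; inactive = the rest.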 Where a SMILES comes first, the peptide text is derived from it. The star is where a group is joined. Boc = CC(C)(C)OC(=O)*

What is called pEC50 is the negative decadic logarithm of the EC50, by convention in mol/L. Broadly, the pIC50 is −log10 of the IC50, conventionally taken in molar units. Lower therefore signals a high IC50.

As to `CCNC(=S)NNC(=O)C12CC3CC(CC(C3)C1)C2`, the pEC50 was below 3.70 and the pIC50 is below 3.70. On to `COc1ccc(Br)c(CN2CCc3ccccc32)c1OS(=O)(=O)c1ccc(C)cc1`, for which the result was inactive.

Regarding `CC1=NN(C(=O)Cc2ccccc2)C(=O)/C1=C\c1ccco1`, the pEC50 was below 4.19 and the pIC50 is below 4.19.

As for `CC(O[Si](c1ccccc1)(c1ccccc1)C(C)(C)C)[C@H](NC(=O)OC(C)(C)C)C(=O)O[Si](c1ccccc1)(c1ccccc1)C(C)(C)C` (some centres not stated), the pEC50 was below 4.57 and the pIC50 was 4.62. For `C=COCCCOc1ccccc1` the same measures were below 3.70 and below 3.70. For `CCc1cccc(C)c1NC(=O)CCc1nc(=S)[nH][nH]1`, the pEC50 is below 3.21 and the pIC50 was below 3.21. Turning to `NNC(=O)C1C(O)CCC2CN3CCc4c([nH]c5ccccc45)C3CC21` (configuration not stated), the result was inactive. The same measure, in the same setting: the same measure for `COc1ccc(/C(=C\c2cc(OC)c(OC)cc2[N+](=O)[O-])C(=O)O)cc1`: “inactive”. For the compound `NC(=O)CNC(=O)c1ccccc1SC(=O)CCCC[n+]1ccccc1`, the pEC50 is 5.76 and the pIC50 is 3.75. As for `CCOC(=O)C(=O)CC1=CC=CC2=NC(=O)CCN12`, the pEC50 was below 3.70 and the pIC50 is below 3.70. As for `COC(=O)C1CC2CC1C1C2SC(F)(F)C1(F)F` (configuration not stated), the pEC50 is below 3.70 and the pIC50 was below 3.70. As to `COc1cc(OC)c2c(c1)C(=O)c1ccccc1C2=O`, the outcome was inactive.

In the case of `CN(C)CCNc1ccc([N+](=O)[O-])c2nc3ccccc3c(N)c12`, the pEC50 was below 3.70 and the pIC50 is 5.71.

On to `C#CCN(Cc1ccc2nc(-c3ccccc3)c(N)nc2c1)c1cc(OC)c(OC)c(OC)c1`, for which the pEC50 was below 4.66 and the pIC50 was below 4.66. As for `CCN(CCO)CCCC(C)Nc1ccnc2cc(Cl)ccc12` (configuration not stated), the pEC50 was below 3.70 and the pIC50 was 4.19.

For the compound `Cc1ccccc1N=NC(C(=O)c1ccccc1)C(=O)c1ccccc1`, the pEC50 is below 4.68 and the pIC50 was 4.83. In the case of `O=C(c1c(O)cc(O)cc1O)c1c(-c2ccc(O)cc2)oc2cc(O)c3c(c12)O[C@H](c1ccc(O)cc1)[C@@H](O)C3`, the pEC50 is 4.78 and the pIC50 is 3.86. As for `NC(=O)c1c(Cl)nc2n1CCS2`, the pEC50 was below 3.70 and the pIC50 was below 3.70. Take `CCC(c1ccccc1)c1noc(CCN(CC)CC)n1` (configuration not stated): the pEC50 was below 3.70 and the pIC50 is 4.47. Taken in the same sequence, the figures for `COC(=O)[C@H]1[C@H](OC(=O)[C@@H](OC)c2ccccc2)ON2CC[C@@H](OC(=O)c3ccccc3)[C@H]12` were below 3.70 and 3.75. Take `CNC(=O)Oc1ccc(C(=O)OCCO)cc1`: the pEC50 was below 3.70 and the pIC50 is 4.02.

With `Cc1cccc(C)c1NC(=O)C1=NC(=S)NC(c2ccccc2)C1c1nc2ccccc2s1` (configuration not stated), the result was inactive. As for `COC1OC(C(C)Br)C2OC(C)(C)OC12` (configuration not stated), the pEC50 was below 3.70 and the pIC50 was below 3.70. With `CC(=O)NC(N)=NC#N`, the pEC50 is below 2.70 and the pIC50 is below 2.70. Turning to `O=C(NCCCCCN1CCC2(CCCCC2)CC1)C(c1ccccc1)C1CCCCC1` (configuration not stated), the pEC50 was below 3.70 and the pIC50 is 5.24.

For the compound `CN1Cc2c(N)cccc2C(c2ccccc2)C1` (configuration not stated), the result was inactive. Regarding `O=c1[nH]c(=S)[nH]n1C(=S)n1[nH]c(=S)[nH]c1=O`, the pEC50 is below 3.70 and the pIC50 was below 3.70. On to `CC(C)C1=C(O)C2=C(C(=O)C1=O)C1(C)CCCC(C)(C)C1CC2O` (configuration not stated), for which the pEC50 is below 3.70; the pIC50 is 4.84 and 4.86. `CCN(CC)CCC(=O)c1ccc(Cl)cc1`: the pEC50 is below 3.04 and the pIC50 is 4.91. With `[Cu+2].[O-]/N=C/c1ccc(O)c(O)c1[O-].[O-]/N=C/c1ccc(O)c(O)c1[O-]`, the result was inactive. For the compound `N#Cc1cc(C#N)c(N)nc1N`, the pEC50 was below 3.70 and the pIC50 was below 3.70. Take `C=C(COCO)C(C)=O`: the pEC50 is below 3.70 and the pIC50 was 5.84. Taken in the same sequence, the figures for `CC(=O)NC(CCCN(Cc1ccccc1)C(=O)NCCCl)C(=O)NCc1ccccc1` (configuration not stated) were below 3.41 and 3.46. Regarding `CC(=O)O[C@H]1C=CC23OC(=O)[C@]1(C)[C@H]2[C@H](C(=O)O)C12CC(=O)[C@@](CO)(CC[C@H]13)C2`, the outcome was inactive. For the compound `N#CCCSC1SC(=C2SC3=C(SCCS3)S2)SC1SCCC#N` (configuration not stated), the pEC50 was below 3.70 and the pIC50 is below 3.70. Regarding `CCOP(=O)(CCn1cnc2c(N)ncnc21)OCC`, the pEC50 is 3.75 and the pIC50 is 3.36. Take `C[C@@](O)(/C=C/[C@H]1CC=CC(=O)O1)[C@@H](C[C@@H](O)\C=C/C=C\C=C\CO)OP(=O)(O)O`: the result was inactive. Turning to `O=C1/C(=C/c2ccco2)NC(=S)N1CN1CCCCC1`, the pEC50 was below 3.70 and the pIC50 is 4.49. For `C[C@H]1c2cccc(O)c2C(O)=C2C(=O)[C@]3(O)C(O)=C(C(N)=O)C(=O)[C@@H](N(C)C)[C@@H]3[C@@H](O)[C@@H]21` the same measures were below 3.73 and 5.08. Consider `CC1=C(C(=S)Nc2ccc(Cl)c(C(=O)OC(C)C)c2)SCCO1`, for which the pEC50 is 7.62 and the pIC50 was 4.19. Regarding `COC(=O)c1cccc2c3ccccc3c3ccccc3c12`, the outcome was inactive.

For the compound `Clc1ccc(CSc2nnc(SCc3ccc(Cl)c(Cl)c3)c3[nH]cnc23)cc1Cl`, the pEC50 is below 3.70 and the pIC50 is 4.90. Turning to `O=c1[nH]c2nc3ccccc3c(=O)n2/c1=C/c1ccco1`, the pEC50 was below 3.70 and the pIC50 was below 3.70. Regarding `CCOC(=O)c1cnc2c(ccc3ncccc32)c1OCC`, the pEC50 was below 3.92 and the pIC50 was 4.14. For the compound `CN(C)c1ccc(/C=C/C(=O)c2ccc(O)cc2)cc1`, the pEC50 is below 3.70 and the pIC50 is 5.48. As to `CC(=O)OC1(Sc2ccccc2)CC2[C@H]3COC(C)(C)O[C@H]3CC[C@@]2(C)CC1=O` (some centres not stated), the outcome was inactive. As for `COC(=O)C(CCc1ccccc1I)C1=CCC2(CC1)OCCO2` (configuration not stated), the pEC50 was below 3.70 and the pIC50 is 4.42. For `CSCCC(NC(=O)C(CC(C)C)NC(=O)CNC(=O)OC(C)(C)C)C(=O)N(C)C` (stereo not drawn) (Boc-Gly-Leu-Met-NMe2; configuration not given here) the same measures were below 3.70 and below 3.70. Taken in the same sequence, the figures for `CC1(C)CC(Br)(Cc2ccccc2)C(=O)c2ccccc21` (configuration not stated) were below 3.70 and 5.10.

Regarding `N#C/C(=C\c1c(Cl)cccc1Cl)c1ccc([N+](=O)[O-])cc1`, the pEC50 is below 3.70 and the pIC50 is below 3.70. Turning to `C[C@@]1(Br)C[C@@](C)(Cl)[C@@H](Br)CC1/C=C/Cl` (some centres not stated), the pEC50 is below 3.70 and the pIC50 was 4.11. Consider `Cc1cc(=O)[nH]c(NN2C(Cl)C(=O)C2c2ccc(O)cc2)n1` (configuration not stated), for which the pEC50 is below 4.37 and the pIC50 is 5.17. In the case of `CCOC(=O)Cc1nc(Cl)c2c(C)c(C)sc2n1`, the pEC50 is below 3.76 and the pIC50 is 4.41.

Consider `O=C1c2ccccc2SC[C@@H]2CCCN12`, for which the pEC50 is below 3.39 and the pIC50 was below 3.39.

Take `N#CC(/C=C/c1ccccc1)NCCc1ccccc1` (configuration not stated): the pEC50 is below 4.98 and the pIC50 was below 4.98.

Turning to `NC(N)=NS(=O)(=O)c1ccc(NCc2c3ccccc3[n+]([O-])c3ccccc23)cc1`, the result was inactive.

As for `S=c1[nH]c(=S)c2[nH]cnc2[nH]1`, the pEC50 was below 3.70 and the pIC50 was 4.07. `COc1cccc(C(O)C(CN2CCCCC2)CN2CCCCC2)c1` (configuration not stated): the pEC50 was below 3.70 and the pIC50 is below 4.00. With `CCOc1ccc2nc(NC(=O)C(=O)C3C(=O)C(CC4C(=O)c5ccccc5C4=O)C(=O)CC3(C)C)sc2c1` (configuration not stated), the pEC50 was below 5.16 and the pIC50 was below 5.16. Take `C1=CC2=CC=CC3c4nc5ccc6ccccc6c5nc4C(=C1)C23` (configuration not stated): the pEC50 was below 3.70 and the pIC50 was below 3.70.

As for `COc1cc(/C=C2/SC(c3ccccc3)N(c3ccc(NC(C)=O)cc3)C2=O)cc(OC)c1OC` (configuration not stated), the pEC50 is below 3.70 and the pIC50 was 3.93.

Consider `CCOC(=O)C(=CNc1ccc(NC2=NCC(C)S2)cc1)C(=O)OCC` (configuration not stated), for which the pEC50 was below 3.70 and the negative logarithm of the IC50 (pIC50) was 5.49. For the compound `Cc1cc2c(=O)c(C)n[nH]c2c(C#N)c1C`, the pEC50 was below 2.93 and the pIC50 is 3.75. For `O=S(=O)(SS(=O)(=O)c1ccc(Cl)cc1)c1ccc(Cl)cc1` the same measures were below 4.03 and below 4.03. Taken in the same sequence, the figures for `c1ccc2c(c1)c(N1CCCCC1)cc1nc3c(cc(N4CCCCC4)c4ccccc43)nc12` were below 4.00 and below 4.00. For `Cc1ccc(NC(=O)CCC(=O)C2Cc3ccccc3C2=O)cc1C` (configuration not stated), the pEC50 was below 3.13 and the pIC50 was 3.14.

As to `CCCNc1nc2c(c(=O)n1-c1ccccc1)C=C(C(=O)OC)CCN2S(=O)(=O)c1ccc(C)cc1`, the pEC50 was below 4.85 and the pIC50 is below 4.85. Take `O=C(Nc1ccccc1)N(C1=NCC(CI)S1)c1ccc(F)c(F)c1` (configuration not stated): the pEC50 was below 3.70 and the pIC50 is 4.74. For `O=C(O)c1cc(-c2c3ccc(=O)cc-3oc3cc(O)ccc23)c(C(=O)O)cc1-c1c2ccc(=O)cc-2oc2cc(O)ccc12` the same measures were below 3.70 and below 3.70. For the compound `CCN(CC)CCSc1c2ccccc2nc2cc(NCC(=O)Nc3ccccc3-c3ccccc3NC(=O)CNc3ccc4c(SCCN(CC)CC)c5ccccc5nc4c3)ccc12`, the pEC50 was below 4.48 and the pIC50 is below 4.48. In the case of `CN(C)c1ccc(/C=C(\NC(=O)c2ccccc2)C(=O)NC(CC(=O)O)C(=O)O)cc1` (configuration not stated), the result was inactive. As for `O=c1c(O)c(-c2ccc(O)c(O)c2)oc2cc(O)ccc12`, the pEC50 was below 3.26; the pIC50 is 4.26 and 4.59. Take `COc1cc(C2c3cc4c(cc3C(NCC(O)CO)C3COC(=O)[C@H]23)OCO4)cc(OC)c1OC` (some centres not stated): the result was inactive.

Values taken from PubChem BioAssay AID179 (DTP/NCI, 2004).
